Tests used:
[1] = Check for adverse immunologic or clinical reaction to low-dose oral PABA in Subject 1; assay type: in vivo, human; details: oral PABA 100 mg three times per day with DL-methionine 500 mg and vitamin E 200 I.U.
Description: Subject 1 is an individual and having hereditary motor and sensory neuropathy. The subject's family has the X-linked subvariety of the disease. All of the composition ingredients of this example were administered via the oral route.
On Sep. 1, 1990 Subject 1 began taking three 100 mg tablets of p-aminobenzoic acid per day. This daily dosage consisted of single 100 mg tablets (Schiff Products, Moonachie, N.J.) taken one at a time approximately every eight hours. Also initiated at this time and taken three times per day: DL-methionine, 500 mg and vitamin E (as mix tocopherols in oil-based capsules), 200 I.U. Their weight at the time was approximately 165 lbs. The daily dosage times were approximately 8:00 AM, 4:00 PM and 11:30 PM. This original low dosage of PABA was selected in part as a check to ensure no adverse immunologic reaction. Symptoms of allergic reaction such as bronchial constriction or skin rash were not observed.

[2] = tested on: left median and ulnar nerves; assay: Nerve conduction studies on Subject 1 in the clinical trial of PABA with antioxidant and vitamin co-agents; assay type: in vivo, human; details: for Latency: distal latency; for Latency / Amplitude / Conduction velocity: May 6, 1992 study; for Change in amplitude / Change in conduction velocity / Change in distal latency: May 6, 1992 vs Jun. 20, 1988
Description: Subject 1 is an individual and having hereditary motor and sensory neuropathy. The subject's family has the X-linked subvariety of the disease. All of the composition ingredients of this example were administered via the oral route. On Sep. 1, 1990 Subject 1 began taking three 100 mg tablets of p-aminobenzoic acid per day. This daily dosage consisted of single 100 mg tablets (Schiff Products, Moonachie, N.J.) taken one at a time approximately every eight hours. Also initiated at this time and taken three times per day: DL-methionine, 500 mg and vitamin E (as mix tocopherols in oil-based capsules), 200 I.U. Their weight at the time was approximately 165 lbs. The daily dosage times were approximately 8:00 AM, 4:00 PM and 11:30 PM. This original low dosage of PABA was selected in part as a check to ensure no adverse immunologic reaction. Symptoms of allergic reaction such as bronchial constriction or skin rash were not observed. […] On Oct. 1, 1990 Subject 1 began taking a total of 600 mg PABA per day by doubling the original dosage noted above; 200 mg taken three times per day. Also taken with PABA: DL-methionine, 500 mg and vitamin E, 200 I.U. On Jan. 1, 1991 Subject 1 began taking three 550 mg capsules of PABA (Solgar Co., Lynbrook, N.Y.) per day, one approximately every eight hours. DL-Methionine use was doubled to 1,000 mg every eight hours. Likewise, vitamin E deosage was doubled to 400 I.U. every eight hours. In addition, the following dietary supplements were initiated and taken once per day (4:00 PM): On Feb. 24, 1991 Subject 1 began taking six 550 mg capsules of PABA per day, two every eight hours plus the dietary supplement combination initiated January 1st. DL-Methionine and vitamin E dosage were continued as initiated January 1st; 3,000 mg and 1,200 I.U. total daily, respectively. Dosage of additional dietary supplements was also continued as initiated January 1st, with the addition of 100 mg vitamin B1 per day. Also, selenium daily dosage was reduced to 12 ug per day. As of May 1, 1991 consumption of pantothenic acid and vitamin B1 were tripled to 250 mg 3× daily and 100 mg 3× daily, respectively, taken with PABA. Also initiated now, vitamin B6, 100 mg taken 3× daily with PABA. As of Jul. 1, 1991 the methionine product was switched to “L-Methionine 500 mg Caps with Vitamin B6” (Nature's Plus, Farmingdale, N.Y.). Each capsule has the free form of the L-amino acid and 50 mg vitamin B6. This dose of vitamin B6 is in addition to the 300 mg/day noted in the preceding paragraph. As of Jul. 26, 1991 the vitamin E product was switched to “Natural Dry All E, 400 I.U.” (Schiff Products, Moonachie, N.J.). One of these dry powder capsules is taken 3× daily with PABA, as before. As of Aug. 7, 1991 daily doses of PABA, methionine and vitamin E were increased by 50%. Thus starting at this time, three 550 mg PABA capsules, three 500 mg methionine capsules, one 400 I.U. dry vitamin E and a 200 I.U. dry vitamin E capsule were taken at a time, three times per day. Daily totals of these agents were now: PABA, 4.95 gm; methionine, 4.5 gm; and vitamin E, 1,800 I.U. Other agents were taken as before. As of Nov. 22, 1991 the daily dose of PABA was increased. Thus starting at this time, four 550 mg PABA capsules were taken at a time, three times per day. Daily total of PABA was now 6.6 gm. Other agents were taken as before. On Jun. 20, 1988 Subject 1 participated in a nerve conduction research study at the National Institutes of Health. Nerve conduction data was recorded from the left median and ulnar nerves, which included conduction velocity, amplitude and distal latency for each nerve. On May 6, 1992 Subject 1 was tested again at the office of a neurologist in Bryn Mawr, Pa. This experimental drug trial involved a step-by-step increase in dosages over an extended period. […]

myocardial glutathione = details: subsequent to experimental ischemia and reperfusion; cited from earlier work
[3] = tested on: plasma cysteine, plasma glutathione and red blood cell glutathione; details: in vivo; cited from earlier work

Compound	Clinical reaction to PABA [1]	Symptoms of allergic reaction such as bronchial constriction or skin rash [1]	Latency ([2]; left median nerve, after PABA up to 6.6 gm/day with co-agents, pre-treatment Jun. 20, 1988 value 12.4)	Amplitude ([2]; left median nerve, after PABA up to 6.6 gm/day with co-agents, pre-treatment Jun. 20, 1988 value 0.4)	Conduction velocity ([2]; left median nerve, after oral PABA raised stepwise from 300 mg/day to 6.6 gm/day (Sep 1990-May 1992) with methionine, vitamin E and vitamin co-agents, Subject 1, X-linked HMSN, pre-treatment Jun. 20, 1988 value 28)	Change in amplitude ([2]; left median nerve)	Change in conduction velocity ([2]; left median nerve)	Change in distal latency ([2]; left median nerve)	Latency ([2]; left ulnar nerve, after PABA up to 6.6 gm/day with co-agents, pre-treatment Jun. 20, 1988 value 13.8)	Amplitude ([2]; left ulnar nerve, after PABA up to 6.6 gm/day with co-agents, pre-treatment Jun. 20, 1988 value 1.3)	Conduction velocity ([2]; left ulnar nerve, after PABA up to 6.6 gm/day with co-agents, pre-treatment Jun. 20, 1988 value 29)	Change in amplitude ([2]; left ulnar nerve)	Change in conduction velocity ([2]; left ulnar nerve)	Change in distal latency ([2]; left ulnar nerve)	Increase in myocardial glutathione (myocardial glutathione)	Levels of plasma cysteine, plasma glutathione and red blood cell glutathione [3]
Nc1ccc(C(=O)O)cc1 [PABA, 4-Aminobenzoic acid]	no clinical reaction	not observed	13.1 ms	0.4 mV	28.2 meters/sec	remained unchanged	remained unchanged	increased (that is, worsened) by six percent	13.1 ms	2.4 mV	31.8 meters/sec	improved by eighty-five percent	improved by ten percent	improved by five percent		
CC(=O)N[C@@H](CS)C(=O)O [N-acetyl-cysteine]															100 fold	increase
